Laboratory results from US20150329512A1, “METHOD AND PHARMACEUTICAL COMPOSITION FOR TREATING LUNG CANCER” (National Dong Hua University, priority 2014, published 2015).

Experiments:
[1] = test system: human lung cancer in lung of mice; assay: Mouse model bearing human lung cancer in lung (A549 or Anti-Dox-A549 cells injected); settings: HCD 0.0318 or 1.272 mg/kg, PG 0.1615 or 0.646 mg/kg body weight, IT injection to the lung, monitored every five days for thirty days
Protocol: The animal experiments were approved by the National Dong-Hwa University Animal Ethics Committee and the experimental protocols were used according to the “Guide for the Care and Use of Laboratory Animals” of National Dong-Hwa University. 1×10^7 of A549 cells or Anti-Dox-A549 cells were suspended in PBS to prepare cell suspensions. On day 0, C57/BL6 mice (6-8 weeks old, n=6) were weighted and anesthetic using pentobarbital (5 mg/ml). Then, the mice were injected with the cell suspension (1×10^7 cells per mouse) into the lung by IT. The injection was repeated every 7 days for 21 days. Another group of mice were injected with 10% EtOH as comparative group according to the same procedure set forth above.
After the establishment of human lung cancer in the experimental mice, the mice were maintained for one more week and then treated with HCD (0.0318 or 1.272 mg/kg body weight, in 10% ETOH with PBS), PG (0.1615 or 0.646 mg/kg body weight, in 10% ETOH with PBS) or 10% EtOH by IT injection (intrathecal injection) to the lung. The body weight was monitored every five days for thirty days. After thirty days, the mice were sacrificed and the lungs were checked for marker of human lung adenocarcinoma by H&E and IHC staining. The livers, kidneys and spleens of the mice were also examined to confirm the cytotoxicity of HCD and PG and to see if there was any metastasis happened.

A549 cells = assay: Cell cycle analysis by flow cytometer (PI staining); type: cell-based, human; settings: A549
Protocol: (§1) The results of Example 2 in cell viability hinted the effects of HCD, PG, and Dox on arresting cell cycle. In this example, the phase of cell cycle of A549 cells and Anti-Dox-A549 cells after the treatment listed in Table 1 was determined by flow cytometer. Briefly, 7×10^4 cells per well were to inoculated in 12-wells plate and incubated overnight at 37° C., 5% CO2. Then, cells were treated according to the treatment listed in Table 1 by indicated time period. After treatment, cells were harvested by trypsin and fixed with 70% ethanol at −20° C. for at least 3 hr. The cells were washed in cold PBS twice and then incubated with 1 ml (v/v) staining solution (20 μg/m1 propidium iodide (PI), 0.1% Triton X-100, 0.2 mg/ml Rnase) at 37° C. for 30 minutes. Lastly, cells were analyzed by flow cytometer (Cytomics™ FC500, Backman, Fullerton, Calif., USA). Data from 10,000 cells were collected for each experimental group.

Anti-Dox-A549 cells = assay: as above; type: cell-based, human; settings: Anti-Dox-A549
Protocol: as §1

## CCCCCC1=C/C(=C/c2[nH]c(-c3ccc[nH]3)cc2OC)N=C1C [PG, Prodigiosin]
[1]
  body weight of the experimental mice: did not show significantly change
A549 cells; PG 2.5 μM, 6 hr
  G0/G1 (%): 46.3 ± 3.4 %
  G2/M (%): 32.3 ± 3.1 %
  S (%): 17.3 ± 1.2 %
  Sub G1 (%): 0.3 ± 0.1%
A549 cells; PG 2.5 μM, 12 hr
  G0/G1 (%): 62.7 ± 2.7%
  G2/M (%): 27.6 ± 0.7 %
  S (%): 6.6 ± 2.1 %
  Sub G1 (%): 0.4 ± 0.2%
A549 cells; PG 2.5 μM, 24 hr
  G0/G1 (%): 85 ± 0.6^ %
  G2/M (%): 11.6 ± 0.7%
  S (%): 1.9 ± 0.15 %
  Sub G1 (%): 0.26 ± 0.05%
A549 cells; PG 5 μM, 6 hr
  G0/G1 (%): 42.9 ± 2.1 %
  G2/M (%): 34.8 ± 0.9 %
  S (%): 18.2 ± 0.8 %
  Sub G1 (%): 0.26 ± 0.05%
A549 cells; PG 5 μM, 12 hr
  G0/G1 (%): 53.3 ± 1.2 %
  G2/M (%): 33.1 ± 0.2 %
  S (%): 10.0 ± 2.0 %
  Sub G1 (%): 0.36 ± 0.2%
A549 cells; PG 5 μM, 24 hr
  G0/G1 (%): 76.2 ± 8.1 %
  G2/M (%): 22.2 ± 1.1%
  S (%): 3.0 ± 0.75 %
  Sub G1 (%): 0.23 ± 0.05%
A549 cells; PG 10 μM, 6 hr
  G0/G1 (%): 43.8 ± 3.1 %
  G2/M (%): 27 ± 2.9%
  S (%): 18.8 ± 0.5 %
  Sub G1 (%): 0.33 ± 0.05%
A549 cells; PG 10 μM, 12 hr
  G0/G1 (%): 41.6 ± 1.3 %
  G2/M (%): 29.1 ± 3.0 %
  S (%): 16.6 ± 1.4%
  Sub G1 (%): 0.46 ± 0.1%
A549 cells; PG 10 μM, 24 hr
  G0/G1 (%): 43.8 ± 2.4 %
  G2/M (%): 26.5 ± 10.0%
  S (%): 9.1 ± 1.7 %
  Sub G1 (%): 0.9 ± 0.7%
Anti-Dox-A549 cells; PG 2.5 μM, 6 hr
  G0/G1 (%): 58.9 ± 7.1%
  G2/M (%): 23.5 ± 1.9%
  S (%): 18.5 ± 0.5%
  Sub G1 (%): 2.2 ± 0.1 %
Anti-Dox-A549 cells; PG 2.5 μM, 12 hr
  G0/G1 (%): 65.3 ± 2.9%
  G2/M (%): 17.2 ± 6.5%
  S (%): 13.8 ± 4.7%
  Sub G1 (%): 1.6 ± 1.2%
Anti-Dox-A549 cells; PG 2.5 μM, 24 hr
  G0/G1 (%): 81.8 ± 5.7%
  G2/M (%): 8.8 ± 1.4%
  S (%): 3.1 ± 1.3 %
  Sub G1 (%): 0.9 ± 0.3%
Anti-Dox-A549 cells; PG 5 μM, 6 hr
  G0/G1 (%): 56 ± 1.3%
  G2/M (%): 23.6 ± 2.3%
  S (%): 18.7 ± 0.8%
  Sub G1 (%): 1.9 ± 0.3%
Anti-Dox-A549 cells; PG 5 μM, 12 hr
  G0/G1 (%): 62.7 ± 4.7 %
  G2/M (%): 19.2 ± 6.9%
  S (%): 16.8 ± 5.5%
  Sub G1 (%): 2.9 ± 1.0%
Anti-Dox-A549 cells; PG 5 μM, 24 hr
  G0/G1 (%): 76.2 ± 6.0%
  G2/M (%): 13.8 ± 1.7%
  S (%): 3.7 ± 2.0 %
  Sub G1 (%): 4.3 ± 5.3%
Anti-Dox-A549 cells; PG 10 μM, 6 hr
  G0/G1 (%): 54.6 ± 3.0 %
  G2/M (%): 19.8 ± 6.6%
  S (%): 22.9 ± 3.4 %
  Sub G1 (%): 2 ± 0.6%
Anti-Dox-A549 cells; PG 10 μM, 12 hr
  G0/G1 (%): 53.2 ± 2.5 %
  G2/M (%): 22.8 ± 6.4%
  S (%): 21.4 ± 3.7%
  Sub G1 (%): 1.8 ± 0.2%
Anti-Dox-A549 cells; PG 10 μM, 24 hr
  G0/G1 (%): 44.3 ± 7.7 %
  G2/M (%): 27.9 ± 1.9 %
  S (%): 11.7 ± 3.7%
  Sub G1 (%): 6.9 ± 4.3%
